According to doi:10.1101/2024.08.19.608619, “Discovery of potent SARS-CoV-2 nsp3 macrodomain inhibitors uncovers lack of translation to cellular antiviral response” (bioRxiv, 2024):
Where two headings read alike, the source gives them in different places.

Tests used:
SARS-CoV-2 nsp3-mac1 [1] = biological target: T1, SARS-CoV-2 nsp3-mac1 (Severe acute respiratory syndrome coronavirus 2, UniProt P0DTD1); assay: biochemical; format: biochemical; details: SARS-CoV-2 nsp3 macrodomain TR-FRET single point
SARS-CoV-2 nsp3-mac1 [2] = biological target: T1, SARS-CoV-2 nsp3-mac1; assay: biochemical; parameters: SARS-CoV-2 nsp3 macrodomain TR-FRET single point, per cent inhibition, n=2
[3] = read-out: perc_inhibition_mean, batch_name=ASAP-0000203-002
[4] = read-out: perc_inhibition_mean, batch_name=ASAP-0000242-001
[5] = read-out: perc_inhibition_mean, batch_name=ASAP-0000243-001
[6] = read-out: perc_inhibition_mean, batch_name=ASAP-0000244-001
[7] = read-out: perc_inhibition_mean, batch_name=ASAP-0000245-001
[8] = read-out: perc_inhibition_mean, batch_name=ASAP-0000246-001
[9] = read-out: perc_inhibition_mean, batch_name=ASAP-0000247-001
[10] = read-out: perc_inhibition_mean, batch_name=ASAP-0000248-001
[11] = read-out: perc_inhibition_mean, batch_name=ASAP-0000249-001
[12] = read-out: perc_inhibition_mean, batch_name=ASAP-0000250-001
[13] = read-out: perc_inhibition_mean, batch_name=ASAP-0000251-001
[14] = read-out: perc_inhibition_mean, batch_name=ASAP-0000252-001
[15] = read-out: perc_inhibition_mean, batch_name=ASAP-0000253-001
[16] = read-out: perc_inhibition_mean, batch_name=ASAP-0000254-001
[17] = read-out: perc_inhibition_mean, batch_name=ASAP-0000255-001
[18] = read-out: perc_inhibition_mean, batch_name=ASAP-0000257-001
[19] = read-out: perc_inhibition_mean, batch_name=ASAP-0000258-001
[20] = read-out: perc_inhibition_mean, batch_name=ASAP-0000260-001

Question: With `COCc1cc(CNc2cc3c(O)ncnc3cn2)no1` [ASAP-0000202] as the molecule, how does the perc_inhibition_mean (SARS-CoV-2 nsp3-mac1 [1]; concentration 50.0 uM) read?
Answer: 3.308%

Question: And the inhibition at 50 µM (SARS-CoV-2 nsp3-mac1 [2]; read-out: perc_inhibition_mean, batch_name=ASAP-0000202-001)?
Answer: 3.31%

Question: How did the perc_inhibition_mean (SARS-CoV-2 nsp3-mac1 [1]; concentration 50.0 uM) turn out when `Cc1ccc(-c2n[nH]cc2CNc2cnc3[nH]ncc3c2)o1` [ASAP-0000203] was run?
Answer: 7.232%

Question: What about the perc_inhibition_mean (SARS-CoV-2 nsp3-mac1 [1]; concentration 50.0 uM, n=2) of the same molecule?
Answer: -21.592%

Question: And the perc_inhibition_mean (SARS-CoV-2 nsp3-mac1 [1]; concentration 100.0 uM, n=2)?
Answer: -24.84%

Question: And the inhibition at 50 µM (SARS-CoV-2 nsp3-mac1 [2]; read-out: perc_inhibition_mean, batch_name=ASAP-0000203-001)?
Answer: 7.23%

Question: And the inhibition at 50 µM (SARS-CoV-2 nsp3-mac1 [2]; [3])?
Answer: -21.6%

Question: What about the inhibition at 100 µM (SARS-CoV-2 nsp3-mac1 [2]; [3]) of the same molecule?
Answer: -24.8%

Question: How did the perc_inhibition_mean (SARS-CoV-2 nsp3-mac1 [1]; concentration 50.0 uM) turn out when `Cn1cnc2c(Nc3cncc(CN)c3)nc(N)nc21` [ASAP-0000242] was run?
Answer: -14.217%

Question: And the perc_inhibition_mean (SARS-CoV-2 nsp3-mac1 [1]; concentration 100.0 uM)?
Answer: -28.278%

Question: And the inhibition at 50 µM (SARS-CoV-2 nsp3-mac1 [2]; [4])?
Answer: -14.2%

Question: And the inhibition at 100 µM (SARS-CoV-2 nsp3-mac1 [2]; [4])?
Answer: -28.3%

Question: `CO[C@@]1(C(=O)O)CCN(C(=O)c2ncnc3[nH]ccc23)C1` [ASAP-0000243] was tested. Which perc_inhibition_mean (SARS-CoV-2 nsp3-mac1 [1]; concentration 50.0 uM) did it give?
Answer: -4.181%

Question: And the perc_inhibition_mean (SARS-CoV-2 nsp3-mac1 [1]; concentration 100.0 uM)?
Answer: -3.71%

Question: What about the inhibition at 50 µM (SARS-CoV-2 nsp3-mac1 [2]; [5]) of the same molecule?
Answer: -4.18%

Question: And the inhibition at 100 µM (SARS-CoV-2 nsp3-mac1 [2]; [5])?
Answer: -3.71%

Question: `C[C@]1(C(=O)O)CCCN1C(=O)c1ncnc2[nH]ccc12` [ASAP-0000244] was tested. Which perc_inhibition_mean (SARS-CoV-2 nsp3-mac1 [1]; concentration 50.0 uM) did it give?
Answer: -5.285%

Question: What about the perc_inhibition_mean (SARS-CoV-2 nsp3-mac1 [1]; concentration 100.0 uM) of the same molecule?
Answer: 5.665%

Question: And the inhibition at 50 µM (SARS-CoV-2 nsp3-mac1 [2]; [6])?
Answer: -5.29%

Question: What about the inhibition at 100 µM (SARS-CoV-2 nsp3-mac1 [2]; [6]) of the same molecule?
Answer: 5.67%

Question: `FC(F)(F)Oc1ccccc1-c1ncnc2[nH]ccc12` [ASAP-0000245] was tested. Which perc_inhibition_mean (SARS-CoV-2 nsp3-mac1 [1]; concentration 50.0 uM) did it give?
Answer: -3.369%

Question: And the perc_inhibition_mean (SARS-CoV-2 nsp3-mac1 [1]; concentration 100.0 uM)?
Answer: 2.117%

Question: What about the inhibition at 50 µM (SARS-CoV-2 nsp3-mac1 [2]; [7]) of the same molecule?
Answer: -3.37%

Question: And the inhibition at 100 µM (SARS-CoV-2 nsp3-mac1 [2]; [7])?
Answer: 2.12%

Question: For `Clc1cnc(OCCNc2ncnc3[nH]ccc23)c(Cl)c1` [ASAP-0000246], which perc_inhibition_mean (SARS-CoV-2 nsp3-mac1 [1]; concentration 50.0 uM) is on record?
Answer: -4.296%

Question: What about the perc_inhibition_mean (SARS-CoV-2 nsp3-mac1 [1]; concentration 100.0 uM) of the same molecule?
Answer: -7.687%

Question: And the inhibition at 50 µM (SARS-CoV-2 nsp3-mac1 [2]; [8])?
Answer: -4.3%

Question: What about the inhibition at 100 µM (SARS-CoV-2 nsp3-mac1 [2]; [8]) of the same molecule?
Answer: -7.69%

Question: Which perc_inhibition_mean (SARS-CoV-2 nsp3-mac1 [1]; concentration 50.0 uM) does the source give for `CO[C@@H](CNc1ncnc2[nH]ccc12)c1cccc(Cl)c1` [ASAP-0000247] here?
Answer: 4.096%

Question: What about the perc_inhibition_mean (SARS-CoV-2 nsp3-mac1 [1]; concentration 100.0 uM) of the same molecule?
Answer: 14.175%

Question: What about the inhibition at 50 µM (SARS-CoV-2 nsp3-mac1 [2]; [9]) of the same molecule?
Answer: 4.1%

Question: What about the inhibition at 100 µM (SARS-CoV-2 nsp3-mac1 [2]; [9]) of the same molecule?
Answer: 14.2%

Question: `O=C(NCc1ccc(Cl)cn1)c1ncnc2[nH]ccc12` [ASAP-0000248] was tested. Which perc_inhibition_mean (SARS-CoV-2 nsp3-mac1 [1]; concentration 50.0 uM) did it give?
Answer: -4.958%

Question: And the perc_inhibition_mean (SARS-CoV-2 nsp3-mac1 [1]; concentration 100.0 uM)?
Answer: -2.568%

Question: What about the inhibition at 50 µM (SARS-CoV-2 nsp3-mac1 [2]; [10]) of the same molecule?
Answer: -4.96%

Question: And the inhibition at 100 µM (SARS-CoV-2 nsp3-mac1 [2]; [10])?
Answer: -2.57%

Question: Which perc_inhibition_mean (SARS-CoV-2 nsp3-mac1 [1]; concentration 50.0 uM) does the source give for `OC[C@H](Cc1ccccc1)Nc1ncnc2[nH]ccc12` [ASAP-0000249] here?
Answer: -1.29%

Question: What about the perc_inhibition_mean (SARS-CoV-2 nsp3-mac1 [1]; concentration 100.0 uM) of the same molecule?
Answer: 8.928%

Question: What about the inhibition at 50 µM (SARS-CoV-2 nsp3-mac1 [2]; [11]) of the same molecule?
Answer: -1.29%

Question: And the inhibition at 100 µM (SARS-CoV-2 nsp3-mac1 [2]; [11])?
Answer: 8.93%

Question: For `CN(Cc1nccn1Cc1ccccc1)c1ncnc2[nH]ccc12` [ASAP-0000250], which perc_inhibition_mean (SARS-CoV-2 nsp3-mac1 [1]; concentration 50.0 uM) is on record?
Answer: -7.218%

Question: What about the perc_inhibition_mean (SARS-CoV-2 nsp3-mac1 [1]; concentration 100.0 uM) of the same molecule?
Answer: -8.82%

Question: What about the inhibition at 50 µM (SARS-CoV-2 nsp3-mac1 [2]; [12]) of the same molecule?
Answer: -7.22%

Question: What about the inhibition at 100 µM (SARS-CoV-2 nsp3-mac1 [2]; [12]) of the same molecule?
Answer: -8.82%

Question: `Clc1cnc(N2CCN(c3ncnc4[nH]ccc34)CC2)c(Cl)c1` [ASAP-0000251] was tested. Which perc_inhibition_mean (SARS-CoV-2 nsp3-mac1 [1]; concentration 50.0 uM) did it give?
Answer: -1.996%

Question: And the perc_inhibition_mean (SARS-CoV-2 nsp3-mac1 [1]; concentration 100.0 uM)?
Answer: -6.565%

Question: What about the inhibition at 50 µM (SARS-CoV-2 nsp3-mac1 [2]; [13]) of the same molecule?
Answer: -2%

Question: What about the inhibition at 100 µM (SARS-CoV-2 nsp3-mac1 [2]; [13]) of the same molecule?
Answer: -6.57%

Question: Which results are given for `c1nc(NCc2cnc3sccn23)c2[nH]cnc2n1` [ASAP-0000252]?
Answer: perc_inhibition_mean (SARS-CoV-2 nsp3-mac1 [1]; concentration 50.0 uM): -4.782%; perc_inhibition_mean (SARS-CoV-2 nsp3-mac1 [1]; concentration 100.0 uM): 5.65%; inhibition at 50 µM (SARS-CoV-2 nsp3-mac1 [2]; [14]): -4.78%; inhibition at 100 µM (SARS-CoV-2 nsp3-mac1 [2]; [14]): 5.65%

Question: `Cc1cc(C(=O)Nc2[nH]nc3nc(O)ccc23)c2c(C)nn(C)c2n1` [ASAP-0000253] was tested. Which perc_inhibition_mean (SARS-CoV-2 nsp3-mac1 [1]; concentration 50.0 uM) did it give?
Answer: -6.166%

Question: What about the perc_inhibition_mean (SARS-CoV-2 nsp3-mac1 [1]; concentration 100.0 uM) of the same molecule?
Answer: -3.323%

Question: And the inhibition at 50 µM (SARS-CoV-2 nsp3-mac1 [2]; [15])?
Answer: -6.17%

Question: And the inhibition at 100 µM (SARS-CoV-2 nsp3-mac1 [2]; [15])?
Answer: -3.32%

Question: What does the source list for `Cc1ccc(O)c(CNc2ncnc3[nH]cnc23)n1` [ASAP-0000254]?
Answer: perc_inhibition_mean (SARS-CoV-2 nsp3-mac1 [1]; concentration 50.0 uM): 0.262%; perc_inhibition_mean (SARS-CoV-2 nsp3-mac1 [1]; concentration 100.0 uM): 6.284%; inhibition at 50 µM (SARS-CoV-2 nsp3-mac1 [2]; [16]): 0.262%; inhibition at 100 µM (SARS-CoV-2 nsp3-mac1 [2]; [16]): 6.28%

Question: For `O=C(NCc1cccc(F)n1)c1cnc2nc[nH]c(=O)c2c1` [ASAP-0000255], which perc_inhibition_mean (SARS-CoV-2 nsp3-mac1 [1]; concentration 100.0 uM) is on record?
Answer: -14.602%

Question: And the perc_inhibition_mean (SARS-CoV-2 nsp3-mac1 [1]; concentration 50.0 uM, n=2)?
Answer: -14.823%

Question: What about the inhibition at 50 µM (SARS-CoV-2 nsp3-mac1 [2]; [17]) of the same molecule?
Answer: -14.8%

Question: And the inhibition at 100 µM (SARS-CoV-2 nsp3-mac1 [2]; [17])?
Answer: -14.6%

Question: `C(=C1CCCCC1)c1ncnc2[nH]ccc12` [ASAP-0000257] was tested. Which perc_inhibition_mean (SARS-CoV-2 nsp3-mac1 [1]; concentration 50.0 uM, n=2) did it give?
Answer: -5.46%

Question: What about the perc_inhibition_mean (SARS-CoV-2 nsp3-mac1 [1]; concentration 100.0 uM, n=2) of the same molecule?
Answer: 3.464%

Question: And the inhibition at 50 µM (SARS-CoV-2 nsp3-mac1 [2]; [18])?
Answer: -5.46%

Question: And the inhibition at 100 µM (SARS-CoV-2 nsp3-mac1 [2]; [18])?
Answer: 3.46%

Question: Which perc_inhibition_mean (SARS-CoV-2 nsp3-mac1 [1]; concentration 50.0 uM, n=2) does the source give for `O=c1[nH]cnc2[nH]cc(-c3ccoc3)c12` [ASAP-0000258] here?
Answer: -14.47%

Question: And the perc_inhibition_mean (SARS-CoV-2 nsp3-mac1 [1]; concentration 100.0 uM, n=2)?
Answer: -13.824%

Question: What about the inhibition at 50 µM (SARS-CoV-2 nsp3-mac1 [2]; [19]) of the same molecule?
Answer: -14.5%

Question: And the inhibition at 100 µM (SARS-CoV-2 nsp3-mac1 [2]; [19])?
Answer: -13.8%

Question: With `Oc1cc(CNc2ncnc3[nH]cnc23)ccn1` [ASAP-0000260] as the molecule, how does the perc_inhibition_mean (SARS-CoV-2 nsp3-mac1 [1]; concentration 50.0 uM, n=2) read?
Answer: -0.821%

Question: And the perc_inhibition_mean (SARS-CoV-2 nsp3-mac1 [1]; concentration 100.0 uM, n=2)?
Answer: -3.73%

Question: And the inhibition at 50 µM (SARS-CoV-2 nsp3-mac1 [2]; [20])?
Answer: -0.821%

Question: And the inhibition at 100 µM (SARS-CoV-2 nsp3-mac1 [2]; [20])?
Answer: -3.73%
